US20250376480A1, “COMPOUND FOR LOSING WEIGHT AND IMPROVING GUT MICROBIOTA COMPOSITION AND COMPOSITION THEREOF” (SUNWAY BIOTECH CO., LTD., priority 2024, published 2025)
Marks after values point to notes of the source that are not given here.

How the values were obtained:
Type in all cases: in vivo, rat
[1] = tested on: obesity rats induced by high-fat feed; assay: Serum biochemical analysis (TC, TG) of high-fat diet rats
Description: (§1) The experimental rats were divided into groups, and the obesity rats were induced by high-fat feed as follows (Please refer to Table 1). • i. NOR Group: Normal animal group. • ii. HF Group: High-fat control group including obesity rats induced by high-fat feed. • iii. RL Group: Obesity rats induced by high-fat feed and tube-fed daily with red yeast rice powder, equivalent to 0.5 g of red yeast rice containing 1.5 mg of Monascinol (compound having the structure of Formula (I)) per day consumed by an adult of 60 kg. • iv. RH Group: Obesity rats induced by high-fat feed and tube-fed red yeast rice powder daily, equivalent to 2 g of red yeast rice containing 6 mg of Monascinol (compound having the structure of Formula (I)) per day consumed by an adult of 60 kg. • V. Msol Group: Obesity rats induced by high-fat feed and tube-fed Monascinol (compound having the structure of Formula (I)) powder daily, equivalent to 3 mg of Monascinol (compound having the structure of Formula (I)) powder per day consumed by an adult of 60 kg.
(§2) (4) Test Substance Feeding Method: The test substance was administered orally by tube feeding, and the concentration of the test substance was adjusted by using reverse osmosis water. 2.0 mL of sterile plastic syringes with stainless steel feeding pins were used to feed each group of test substance daily. Stainless steel feeding needles were soaked in 70% alcohol solution and rinsed with sterile distilled water several times before use. Each group of test animals was administered the test substance once a day for 8 weeks.
(5) Sacrificial Blood Sampling: At the 8th week, the rats fasted for 12-14 hours before blood sampling. […] Blood samples were centrifuged with the conditions of 4° C. and 3,000×g for 15 min.
(§3) The animals fasted for 16 hours before sacrifice, and carbon dioxide was used for asphyxiation during sacrifice. After making sure that there was no heartbeat, blood was drawn and organs were collected. […] After blood collection, the needle was slowly withdrawn from the blood vessel and the blood was placed into a 2 mL eppendorf tube and centrifuged at 10,000×g for 10 min. The upper serum layer was separated into eppendorf tubes and stored in a −20° C. freezer for future analysis.
The test was performed using a biochemical autoanalyzer (Model No.: Beckman-700, purchased from Fullerton, California, USA). The items measured were Total Cholesterol (TC), and Triglyceride (TG).

[2] = tested on: obesity rats induced by high-fat feed; assay: Liver weight and liver/body weight of high-fat diet rats
Description: (§4) Forty male rats of 8-week-old Sprague-Dawley (SD) strain were purchased from BioLASCO (Taipei, Taiwan) for the experiment. The growing environment was one with constant indoor temperature (25±1° C.), relative humidity of 60%, and 12 hours of cyclic light (light time from 8:00 to 20:00). The rats were acclimatized for four days before the formal experiment, then reared in 5 groups of 8 rats each for 8 weeks and were fed in an ad libitum feeding manner, and their body weight, food intake and water intake were measured at regular intervals during the experimental period.
as §1, §2, §3

[3] = tested on: gut microbiota of high-fat diet rats; assay: Gut microbiota fecal analysis (full-length 16S sequencing) of high-fat diet rats
Description: About 0.3 g of fresh feces was collected into 1.5 mL of eppendorf before fasting for sacrifice, sealed with parafilm, stored at −80° C. for analysis, and sent to BioTools (New Taipei, Taiwan) for analysis.
Total genomic DNA (QIAamp PowerFecal DNA, Qiagen) was extracted from the samples. The DNA concentration was determined by Qubit 4.0 fluorometer (Thermo Scientific) and adjusted to 1 ng/μL. The full-length 16S gene (V1-V9 region) was amplified by 16S gene-specific primers with barcodes (Forward primer 1): 5′ Phos/GCATC-16-base barcode-Sequence ID Number 11, Reverse primer 1: 5′Phos/GCATC-16-base barcode—Sequence ID Number 12). PCR reactions were performed using KAPA HiFi HotStart ReadyMix (Roche): at 95° C. for 3 min. and 20-27 cycles (Sample Dependency): at 95° C. for 30 sec., at 57° C. for 30 sec., at 72° C. for 60 sec; at 72° C. for 5 min., and finally stored at 4° C. for future use. PCR products were monitored on 1% agarose gels. Samples of approximately 1500 bp bright bands were selected and purified by using AMPure PB Beads for SMRTbell library preparation.
SMRTbell libraries were prepared based on full-length 16S gene amplifications with barcoded primers used in the Multiplex SMRTbell Library Preparation and Sequencing Program (Pacbio). Sequencing was performed in circular consensus sequencing (CCS) mode on a PacBio Sequel Ile instrument, generating HiFi read with a Phred Scale=30. The DNA to be tested will be sequenced iteratively. By comparing the results of the reverse sequencing, sequencing errors will be corrected, ultimately achieving a high accuracy of >99.9% (QV30).
Information Analysis (Sequential data processing/denoising and species annotation) The sample data from the downstream data were sorted out according to the Barcode sequence and PCR amplification primer sequences. After the removal of the barcodes and primer sequences, the data were imported into QIIME2 (v2019.7.0; https://qiime2.org/) and all the sequences of the samples were saved into one corresponding object Artifacts. QIIME2 cutadapt was used to remove the amplicon variant primers (forward primer 2: Sequence ID Number 13; reverse primer 2: Sequence ID Number 14), and the sequence with the primers removed will be used as QIIME2 DADA2. Input Reads.
The denoising analysis began with the filtering of sequences, setting each sequence to be cropped to a specified length (forward reads: 280 bp; reverse reads: 220 bp) and setting the MaxEE (forward reads: 2; reverse reads: 2) parameter as the maximum number of expected error bases allowed for the sequence. This was followed by denoising, the core algorithm of DADA2 utilizing the information of sequence abundance, quality score, and relationships between sequences to correct the […] of sequencing errors and to infer the real sequences. Splicing was performed after denoising each end of the sequence (minimum overlap length 20 bp; overlap region was not allowed to be mismatched). Finally, the spliced sequences are subjected to chimera removal by comparing the sequences with higher abundance in the sample. If a sequence with low abundance is similar to several sequences, it can be recognized as a chimera and removed from the sample. Sequences after denoising analysis were used as representative sequences of Amplicon Sequence Variants (ASVs) and can be obtained from the ASV table for subsequent species annotation. The QIIME2 feature-classifier (v2019.7.0; https://qiime2.org/) was used to select machine learning-based classification methods and to train naïve bayes classifiers for different databases and specific variability regions. The taxonomic annotation of ASVs represented by this classifier yields taxonomic information and the composition of the microbial phyla of each sample at each classification level including kingdom, phylum, class, order, family, genus, and species.
Welch's t-test was analyzed by STAMP (v2.1.3), and the intergroup species differences were plotted as bar charts. […]

[4] = tested on: obesity rats induced by high-fat feed; assay: Liver lipid extraction and determination (TC, TG)
Description: as §1, §2
(§5) 0.1 g of liver tissue or fecal powder was weighed and 1 mL of chloroform:methanol (2:1, v/v volume ratio) was added, and homogenized with a tissue homogenizer and centrifuged to obtain the supernatant. The supernatant was then air-dried to remove the solvent, and the sample was dissolved by adding dimethyl sulfoxide (DMSO), and the extracts were kept at −20° C. The TC concentration was analyzed using a commercially available biochemical reagent (Model No. BXC 0261, Fortress), and the TG concentration was analyzed using a commercially available biochemical reagent (Model No. BXC 0271, Fortress), as per the kit instruction manual.

[5] = tested on: obesity rats induced by high-fat feed; assay: Body weight change of obesity rats induced by high-fat feed
Description: as §4
The feeding dosage was calculated according to the method of “Estimating the maximum safe starting dose in initial clinical trials for therapeutics in adult healthy volunteers” published by the U.S. Food and Drug Administration in 2005. Provided that an adult of 60 kg was used as the base, the principle of dosage conversion is 6.2 times of the recommended daily intake of mg/kg bw/day for human as the recommended daily intake of mg/kg bw/day for rat, and the rat group is configured and fed with the dosage as shown in Table 1. The formulae are as follows: Dose intake per kilogram of body weight in rats=Recommended intake in humans÷Body weight 60 kg×6.2, and thus the daily dose intake per kilogram of body weight in rats can be calculated.
as §1
(4) Test Substance Feeding Method: The test substance was administered orally by tube feeding, and the concentration of the test substance was adjusted by using reverse osmosis water. 2.0 mL of sterile plastic syringes with stainless steel feeding pins were used to feed each group of test substance daily. […]
The body weight of rats was measured weekly and the changes in body weight of each group were compared at the end of the experiment.

[6] = tested on: obesity rats induced by high-fat feed; assay: Body fat mass and body fat rate (perirenal and epididymal fat) of high-fat diet rats
Description: as §4, §1, §2
At the time of sacrifice, fatty tissues surrounding the kidneys and the epididymis (perirenal and epididymal fatty tissues) of the experimental animals were removed, and the their weights were measured and recorded. The body fat rate was calculated as follows: Body fat efficiency=(fat weight/body weight)×100%

[7] = tested on: obesity rats induced by high-fat feed; assay: Fecal lipid extraction and determination (TC, TG)
Description: as §1, §2, §5

[8] = Msol: Monascinol 0.31 mg/kg BW/day (adult 3 mg/day), tube-fed 8 weeks, high-fat diet SD rats, mean±SD
[9] = p<0.05, 8 weeks, RL 0.5 g/day, RH 2 g/day, Msol 3 mg/day (adult equivalent)
[10] = 8 weeks, RL 0.5 g/day, RH 2 g/day, Msol 3 mg/day (adult equivalent)
[11] = FIGS. 9A-9D, high-fat diet rats, red yeast rice 0.5 and 2 g/day, Monascinol 3 mg/day
[12] = order level, FIG. 7C, high-fat diet rats, red yeast rice 0.5 and 2 g/day, Monascinol 3 mg/day
[13] = phylum level, FIG. 7A, high-fat diet rats, red yeast rice 0.5 and 2 g/day, Monascinol 3 mg/day
[14] = vs HF group, 8 weeks, RL 0.5 g/day, RH 2 g/day, Msol 3 mg/day (adult equivalent)

C/C=C/C1=CC2=C(CO1)C(=O)C1(C)OC(=O)C(C(O)CCCCC)C1C2 (stereo not drawn) [Msol, Monascinol]
TC in serum [1, 8]: 65.0 ± 10.4^b mg/dL | TG in serum [1, 8]: 61.7 ± 10.7^a mg/dL | serum TC concentration compared with HF group [1, 9]: reduced | serum TG concentration compared with HF group ([1]; p<0.05, 8 weeks, red yeast rice at all doses (0.5 and 2 g/day), Msol 3 mg/day (adult equivalent)): significant reduction effect | liver-to-body-weight ratio compared with HF group [2, 10]: reduction | Liver Weight/Body Weight [2, 8]: 3.28 ± 0.37^b % | Liver weight [2, 8]: 16.84 2.31^b g | liver weight compared with HF group [2, 9]: significant decrease | F/B ratio (abundance ratio of Firmicutes to Bacteroidetes) ([3]; FIG. 7A, high-fat diet rats, red yeast rice 0.5 and 2 g/day, Monascinol 3 mg/day): decrease | content of B. thetaiotaomicron in the intestines [3, 11]: most significant | intestinal abundance of Dubosiella newyorkensis [3, 11]: increase | bacterial abundance of Bifidobacteriales in the intestine [3, 12]: increased | intestinal abundance of Verrucomicrobiales [3, 12]: increased | intestinal abundance of Eubacteriales ([3]; order level, FIG. 8, HF group 50.14%, NOR 35.07%, MSol: Monascinol adult 3 mg/day, 8 weeks, high-fat diet rats): 43.21% | abundance of Bacteroidetes [3, 13]: increase | abundance of Firmicutes [3, 13]: decrease | abundance of A. muciniphila ([3]; species level, FIG. 7F, high-fat diet-induced obesity rats, red yeast rice 0.5 and 2 g/day, Monascinol 3 mg/day): increased | hepatic TC levels compared with HF group [4, 10]: effective in reducing | Liver TC [4, 8]: 5.05 ± 0.54^a mg/g | Liver TG [4, 8]: 14.40 ± 1.57^a mg/g | liver TG content compared with HF group [4, 9]: significantly different from the HF group | Weight 8 week [5, 8]: 512.1 ± 31.1^a g | Weight gain [5, 8]: 220.8 ± 38.8^a g | Weight before Sacrifice ([5]; after fasting, Msol: Monascinol 0.31 mg/kg BW/day (adult 3 mg/day), tube-fed 8 weeks, high-fat diet SD rats, mean±SD): 488.5 ± 31.7^a g | weight gain compared with HF group [5, 9]: significantly reduced | Fat/body weight [6, 8]: 3.35 ± 0.55^b % | body fat mass compared with HF group [6, 9]: significantly reduced | body fat percentage compared with HF group [6, 9]: significantly reduced | Fat weight ([6]; perirenal and epididymal fat, Msol: Monascinol 0.31 mg/kg BW/day (adult 3 mg/day), tube-fed 8 weeks, high-fat diet SD rats, mean±SD): 17.95 3.55^b g | Feces TC [7, 8]: 46.22 ± 4.72^c mg/g | Feces TG [7, 8]: 61.27 4.80^cd mg/g | accumulation of TG in the body (from fecal TG content) [7, 14]: effective in reducing | excretion of TC (feces) [7, 14]: significantly promoted
